According to publication PMC4010227 (Journal of computer-aided molecular design, 2010):

Biological target: F508del-CFTR (Homo sapiens, UniProt P13569, DEL508-508)
Experiment: Ussing chamber short-circuit current, acute cumulative dose response
Assay type: cell-based

- EC50: < 1000 nM
Substance: EPX-108380
